{"source": "patent US11510865B2", "about": "“Magnolia bark extract as a hydrophobic ligand for preferential removal of gram negative bacteria from the oral cavity” (WM. WRIGLEY JR. COMPANY, priority 2015, dated 2022)", "origin": "cited, not measured here", "system": "S. mutans (ATCC 10449)", "details": "increased from 0.01; Jongsma et al. 2015", "data": [{"smiles": "Oc1cc(Cl)ccc1Oc1ccc(Cl)cc1Cl", "note": "[triclosan]", "values": [{"measurement": "removal rate", "value": 0.05}]}]}
